Results: ChEMBL document CHEMBL6153174, “Design and Synthesis of Novel Deazapurine DNMT 1 Inhibitors with In Vivo Efficacy in DLBCL” (J Med Chem, 2025)

Legend:
Jurkat = assay: Antiproliferative activity against human Jurkat cells assessed as inhibition of cell viability measured after 72 hrs by MTT assay; assay type: functional, cell-based
TMD8 [1] = assay: Antitumor activity against human TMD8 cells xenografted in mouse model assessed as tumor inhibition rate at 2.5 mg/kg, ip QD relative to control; assay type: functional; design: scale not given: the % may be the effect or the level left
[2] = Antitumor activity against human TMD8 cells harbouring […] xenografted in mouse model assessed as body weight change at 2.5 mg/kg, ip QD relative to control; assay type: functional
[3] = Antitumor activity against human TMD8 cells harbouring […] xenografted in mouse model assessed as tumor inhibition rate at 2.5 mg/kg, ip QD relative to control; assay type: functional; design: scale not given: the % may be the effect or the level left
[4] = Antitumor activity against human TMD8 cells harbouring TP53 mutant xenografted in mouse model assessed as body weight change at 2.5 mg/kg, ip QD relative to control; assay type: functional
[5] = Upregulation of FAS mRNA level in human DOHH-2 cells assessed as fold change at 300 nM measured after 6 days by PCR analysis; assay type: functional; details: time 6 day
U2932 = assay: Antiproliferative activity against human U2932 cells assessed as inhibition of cell viability measured after 72 hrs by MTT assay; assay type: functional, cell-based; details: U2932, 72 h
[6] = Antitumor activity against human TMD8 cells harbouring TP53 mutant xenografted in mouse model assessed as tumor inhibition rate at 2.5 mg/kg, ip QD relative to control; assay type: functional; design: scale not given: the % may be the effect or the level left
TMD8 [7] = assay: Antiproliferative activity against human TMD8 cells assessed as inhibition of cell viability measured after 72 hrs by MTT assay; assay type: functional, cell-based; details: TMD8, 72 h
[8] = Antiproliferative activity against human NK-YS cells assessed as inhibition of cell viability measured after 72 hrs by MTT assay; assay type: functional, cell-based
[9] = Upregulation of BAX mRNA level in human DOHH-2 cells assessed as fold change at 300 nM measured after 6 days by PCR analysis; assay type: functional; details: time 6 day
DOHH-2 = assay: Antiproliferative activity against human DOHH-2 cells assessed as inhibition of cell viability measured after 72 hrs by MTT assay; assay type: functional, cell-based; details: DOHH-2, 72 h

## Nc1ncn([C@@H]2O[C@H](CO)[C@@H](O)[C@H]2O)c(=O)n1 [AZACITIDINE]
Jurkat
  IC50: 1080 nM
TMD8 [1]
  Activity: 53.02%
[2]
  Activity: -5.9%
[3]
  Activity: 52.1%
[4]
  Activity: -5.9%
[5]
  fold change (FC): 1.8
U2932
  IC50: 1830 nM
[6]
  Activity: 43.6%
TMD8 [7]
  IC50: 2840 nM
[8]
  IC50: 3280 nM
[9]
  fold change (FC): 1.86
DOHH-2
  IC50: 340 nM
